Patent publication US20180280393A1, “METHODS AND COMPOSITIONS FOR TREATMENT OF METASTATIC AND REFRACTORY CANCERS AND TUMORS” (The Wistar Institute of Anatomy and Biology, priority 2015, published 2018)

What was measured:
ERK1/2 phosphorylation = experiment: TCR ligation of human CD8 T cells, Western blot for ERK1/2 phosphorylation; assay type: cell-based
Method: FIG. 2C is a blot showing FACS-sorted human CD8 T cells that were stimulated by anti-CD3/CD28 crosslinking in the presence of the indicated compounds as described in methods. After 10 min, cells were harvested for Western blotting.
CD8+ cells were sorted from PBMCs and rested overnight in R10. T cells (0.5×10^6 per condition) were stained with OKT3-biotin (BioLegend, 10 μg/ml) for 15 mins on ice, and washed in cold PBS. TCR ligation was performed by adding streptavidin (Promega, 25 μg/ml) and anti-CD28 (Millipore, clone 15E8, 1 μg/ml) in the presence of indicated inhibitors for 10 min at 37° C.
Western blotting—Cells were lysed in RIPA buffer (Thermo Scientific) with protease inhibitors (Complete Protease Inhibitor Cocktail Tablets, Roche) and phosphatase inhibitors (Halt Phosphatase Inhibitor, Thermo Scientific, and Na3VO4, 1 mM) and cleared by centrifugation. Proteins were quantified by BCA assay (Thermo Scientific), diluted in reducing lamelli buffer, denatured by incubation at 95° C., run on mini Protean TGX Ready Gels (Bio-Rad Laboratories), transferred to a nitrocellulose membrane, blocked, and incubated with primary antibodies for p-ERK1/2 (Cell Signaling Technologies, clone D13.14.4E), p-AKT (Cell Signaling Technologies, clone D9E), beta-tubulin (Cell Signaling Technologies, clone 9F3), beta-actin (Sigma, clone AC-15), or IGF-1R (Cell Signaling Technologies, #3027). Immunoreactive bands were developed using horseradish peroxidase-conjugated secondary antibodies (Bio-Rad Laboratories) and ECL substrate (GE Healthcare).

Brpkp110 cells = experiment: Brpkp110 cell proliferation, MTS assay; assay type: cell-based, mouse; settings: in vitro, 2 days
Method: (§1) Cell proliferation assays—Cells were plated in 96-well plates. Compounds were added the next morning, and cell proliferation was measured 48 hrs later with the […] 96 MTS assay (Promega) according to the manufacturer's instructions. Molecular screening of compounds on A2780 cells was performed by adding compounds the morning after plating in 384-well plates and measuring proliferation 72 hrs later with resazurin fluorescence. Normalized percent inhibition (NPI) was calculated with respect to fluorescence values obtained with DMSO negative control and doxorubicin (5 μM) positive control as NPI=100%*(DMSO−compound)/(DMSO−doxorubicin). TCR ligation of human CD8 T cells

human T cells [1] = experiment: ConA-induced activation and expansion of human T cells (high-throughput screen); assay type: cell-based
Method: T cell stimulation—For human T cell proliferation assays, peripheral blood lymphocytes were obtained by leukapheresis/elutriation and Miltenyi bead-purified and K562 cells expressing human CD32 were generated as previously described^41. […] PBMCs were labeled with CELLTRACE Violet stain (Invitrogen) according to the manufacturer's instructions and cocultured with loaded K32 cells at a 10:1 T cells:K32 ratio or activated with ConA (2 μg/ml, Sigma). Proliferation of stimulated T cells was determined 7 days later by FACS and Division Index was calculated using FlowJo software.
(§2) EC50 values were calculated from normalized percent inhibition data using non-linear curve fitting in PRISM software.

osteopontin (SPP1) = experiment: LC-MS/MS of culture supernatants from Brpkp110 cells; assay type: cell-based, mouse; settings: 200 nM, 40 hrs
Method: Supernatants were collected, centrifuged, passed through a 0.22 μm filter, and concentrated by centrifugation in Amicon 3000 MWCO tubes (EMD Millipore). Concentrated sups were run 0.5 cm on a NuPage 12% Gel with MES buffer, extracted, and digested with trypsin.
Liquid chromatography tandem mass spectrometry (LC-MS/MS) analysis was performed by the Wistar Proteomics Facility using a Q Exactive Plus mass spectrometer (Thermo Scientific) coupled with a Nano-ACQUITY UPLC system (Waters). Samples were injected onto a UPLC Symmetry trap column (180 μm i.d.×2 cm packed with 5 μm C18 resin; Waters), and tryptic peptides were separated by RP-HPLC on a BEH C18 nanocapillary analytical column (75 μm i.d.×25 cm, 1.7 μm particle size; Waters) using a gradient formed by solvent A (0.1% formic acid in water) and solvent B (0.1% formic acid in acetonitrile). Peptides were eluted at 200 nL/min for 5-30% B over 225 min, 30-80% B over 5 min, constant 80% B for 10 min before returning to 5% B over 1 min. A 30-min blank gradient was run between sample injections to minimize carryover. Eluted peptides were analyzed by the mass spectrometer set to repetitively scan m/z from 400 to 2000. […]
MS data were analyzed with MaxQuant 1.5.2.8 software^42. […]

human T cells [2] = experiment: Cytokine rescue of human T cell proliferation from MEK inhibition; assay type: cell-based
Method: Proliferation of CD8 T cells after 7 days is shown.
FIG. 2D is a graph showing that human PBMCs were activated as in FIG. 2B with the indicated compounds, BKM120=2 μM.
Reported are percentages of cells that proliferated with GDC0973 relative to vehicle treatment with the same cytokines after 7 days. Stains are not depicted.
T cell stimulation—For human T cell proliferation assays, peripheral blood lymphocytes were obtained by leukapheresis/elutriation and Miltenyi bead-purified and K562 cells expressing human CD32 were generated as previously described^41. K32 were γ-irradiated (100 Gy) and loaded with anti-CD3 (500 ng/ml, clone OKT3; eBioscience) plus anti-CD28 (500 ng/ml, clone 15E8; EMD Millipore) antibodies at room temperature for 10 minutes. PBMCs were labeled with CELLTRACE Violet stain (Invitrogen) according to the manufacturer's instructions and cocultured with loaded K32 cells at a 10:1 T cells:K32 ratio or activated with ConA (2 μg/ml, Sigma). Proliferation of stimulated T cells was determined 7 days later by FACS and Division Index was calculated using FlowJo software.

[3] = test system: A2780 ovarian cancer cells; experiment: Molecular screening of compounds on A2780 cell proliferation (resazurin fluorescence); assay type: cell-based, human; settings: except at a high concentration
Method: as §1, §2

human T cells [4] = experiment: aAPC (anti-CD3/anti-CD28)-induced human T cell proliferation, CELLTRACE; assay type: cell-based; settings: 7 days
Method: Four plots show proliferation of CD8 cells after 7 days is shown. […] Proliferation of CD8 cells after 7 days is shown. T cell stimulation-For human T cell proliferation assays, peripheral blood lymphocytes were obtained by leukapheresis/elutriation and Miltenyi bead-purified and K562 cells expressing human CD32 were generated as previously described^41. […] were γ-irradiated (100 Gy) and loaded with anti-CD3 (500 ng/ml, clone OKT3; eBioscience) plus anti-CD28 (500 ng/ml, clone 15E8; EMD Millipore) antibodies at room temperature for 10 minutes. PBMCs were labeled with CELLTRACE Violet stain (Invitrogen) according to the manufacturer's instructions and cocultured with loaded […] cells at a 10:1 T cells:[…] ratio or activated with ConA (2 μg/ml, Sigma). Proliferation of stimulated T cells was determined 7 days later by FACS and Division Index was calculated using FlowJo software.

MCF-7 tumor cells = experiment: MCF-7 cell proliferation, MTS assay; assay type: cell-based, human; settings: 2 days
Method: Representative results from one of two independent experiments.
as §1

In the case of CCCCCCCCCCCCCC(=O)O[C@@H]1[C@@H](C)[C@@]2(O)[C@@H](C=C(CO)C[C@]3(O)C(=O)C(C)=C[C@@H]23)[C@@H]2C(C)(C)[C@]12OC(C)=O [PMA, phorbol-12-myristate-13-acetate], the “ERK phosphorylation under PI3K inhibition” value (ERK1/2 phosphorylation; without fully restoring AKT phosphorylation) is reported as “completely overcomes the suppressive effect”.

For CC(=O)Nc1cccc(-n2c(=O)n(C3CC3)c(=O)c3c(Nc4ccc(I)cc4F)n(C)c(=O)c(C)c32)c1 [trametinib], the “growth compared to vehicle” value (Brpkp110 cells) was 70%, the EC50 (human T cells [1]; T-cell, 168 h, human T cells activated with ConA for 7 days, N/A = ambiguous curve fits or EC50 greater than the highest concentration tested (25 μM)) was 0.337 nM and the “decrease of osteopontin (SPP1) in Brpkp110 supernatants” value (osteopontin (SPP1)) was over 18 fold.

For “IL-15: recombinant human IL-15 (Novoprotein), proliferative cytokine”, the “rescue of the defect in ERK phosphorylation in the presence of BKM120” value (ERK1/2 phosphorylation; pan-PI3K inhibitor BKM120 present) was “unable to rescue”, the “rescue of early TCR-induced MAPK signaling (ERK1/2 phosphorylation) from MEK inhibition” value (ERK1/2 phosphorylation; within 10 minutes) was “can rescue” and the “rescue of T cell proliferation in the presence of the MEK inhibitors” value (human T cells [2]; GDC0973 or trametinib) was “able to rescue T cell proliferation”. For the same molecule, the “rescue of T cell expansion when PI3K and MEK inhibitors were combined” value (human T cells [2]; trametinib + BKM120) was “could not be fully rescued”.

C[C@]1(O)C[C@@H](c2nc(-c3ccc4ccc(-c5ccccc5)nc4c3)c3c(N)nccn32)C1 [OSI906] was tested, and the “activity on A2780 cells” value [3] was “did not show any activity”, the “activity on T cells” value (human T cells [1]; except at a high concentration) was “did not show any activity” and the “proliferation of human T cells in response to aAPC coated with agonistic CD3 and CD28 antibodies” value (human T cells [4]) was “did not impact”. For the same molecule, the “tumor cell proliferation of MCF-7 cells” value (MCF-7 tumor cells) was “a reduction in tumor cell proliferation at concentrations that did not affect T cells”.
